Assay results reported in the NIST ThermoML archive (doi:10.1021/je0601356).
“And” between values parts separate entries of the source, which are not always exact repeats. Equal entries are not always repeated.

Conditions: Liquid, Vibrating wire viscometry

CC(F)(F)F [1,1,1-trifluoroethane]
Conditions | viscosity
254.35 K, 1340 kPa | 0.2054 mPa·s
254.35 K, 1350 kPa | 0.2063 mPa·s and 0.2059 mPa·s and 0.2062 mPa·s
254.35 K, 1360 kPa | 0.2057 mPa·s and 0.2065 mPa·s
254.35 K, 1410 kPa | 0.206 mPa·s
254.35 K, 1450 kPa | 0.2063 mPa·s
254.35 K, 1960 kPa | 0.208 mPa·s and 0.2082 mPa·s
254.35 K, 1970 kPa | 0.2078 mPa·s
254.35 K, 2010 kPa | 0.2081 mPa·s and 0.208 mPa·s
254.35 K, 2040 kPa | 0.2083 mPa·s
254.35 K, 2070 kPa | 0.2088 mPa·s
254.35 K, 3110 kPa | 0.2114 mPa·s
254.35 K, 3160 kPa | 0.2116 mPa·s
254.35 K, 3170 kPa | 0.2115 mPa·s
254.35 K, 3210 kPa | 0.2122 mPa·s
254.35 K, 3280 kPa | 0.212 mPa·s
254.35 K, 3320 kPa | 0.2119 mPa·s
254.35 K, 4170 kPa | 0.2145 mPa·s
254.35 K, 4190 kPa | 0.2147 mPa·s
254.35 K, 4210 kPa | 0.2147 mPa·s
254.35 K, 4940 kPa | 0.2173 mPa·s
254.35 K, 4970 kPa | 0.2167 mPa·s
254.35 K, 5000 kPa | 0.2176 mPa·s
254.35 K, 5020 kPa | 0.2172 mPa·s
254.35 K, 5050 kPa | 0.2171 mPa·s
254.35 K, 5100 kPa | 0.2176 mPa·s
263.02 K, 1300 kPa | 0.1828 mPa·s
263.02 K, 1320 kPa | 0.1828 mPa·s and 0.1829 mPa·s
263.02 K, 1330 kPa | 0.1827 mPa·s and 0.1826 mPa·s
263.02 K, 1970 kPa | 0.1855 mPa·s
263.02 K, 1980 kPa | 0.1857 mPa·s
263.02 K, 1990 kPa | 0.1855 mPa·s
263.02 K, 2010 kPa | 0.1851 mPa·s
263.02 K, 2020 kPa | 0.1857 mPa·s and 0.1859 mPa·s
263.02 K, 3420 kPa | 0.1899 mPa·s
263.02 K, 3430 kPa | 0.1898 mPa·s
263.02 K, 3450 kPa | 0.1898 mPa·s
263.02 K, 3520 kPa | 0.1903 mPa·s
263.02 K, 3560 kPa | 0.1901 mPa·s
263.02 K, 3590 kPa | 0.1898 mPa·s
263.02 K, 3640 kPa | 0.1906 mPa·s
263.02 K, 3670 kPa | 0.1905 mPa·s and 0.1908 mPa·s
263.02 K, 4800 kPa | 0.1943 mPa·s
263.02 K, 4840 kPa | 0.194 mPa·s
263.02 K, 4870 kPa | 0.194 mPa·s
263.02 K, 4910 kPa | 0.1942 mPa·s
263.02 K, 4950 kPa | 0.1939 mPa·s
263.02 K, 6990 kPa | 0.2018 mPa·s
263.02 K, 7090 kPa | 0.201 mPa·s
263.02 K, 7160 kPa | 0.2015 mPa·s
263.02 K, 7200 kPa | 0.2011 mPa·s
263.02 K, 7230 kPa | 0.2016 mPa·s
263.02 K, 7310 kPa | 0.2013 mPa·s and 0.2019 mPa·s
263.02 K, 7380 kPa | 0.2024 mPa·s
263.02 K, 7390 kPa | 0.2015 mPa·s
263.02 K, 7420 kPa | 0.2011 mPa·s
263.02 K, 7460 kPa | 0.2024 mPa·s and 0.2022 mPa·s
263.02 K, 7520 kPa | 0.2017 mPa·s
273.21 K, 1420 kPa | 0.1617 mPa·s
273.21 K, 1430 kPa | 0.1619 mPa·s
273.21 K, 1440 kPa | 0.1619 mPa·s
273.21 K, 1450 kPa | 0.1619 mPa·s
273.21 K, 1810 kPa | 0.1629 mPa·s
273.21 K, 1820 kPa | 0.1627 mPa·s
273.21 K, 1860 kPa | 0.1629 mPa·s
273.21 K, 1890 kPa | 0.1626 mPa·s
273.21 K, 3450 kPa | 0.1681 mPa·s and 0.1679 mPa·s and 0.1682 mPa·s
273.21 K, 3460 kPa | 0.1677 mPa·s
273.21 K, 3490 kPa | 0.1682 mPa·s and 0.1678 mPa·s
273.21 K, 3500 kPa | 0.168 mPa·s
273.21 K, 4850 kPa | 0.1724 mPa·s
273.21 K, 4860 kPa | 0.1722 mPa·s
273.21 K, 4880 kPa | 0.1724 mPa·s and 0.1719 mPa·s
273.21 K, 4910 kPa | 0.1722 mPa·s
273.21 K, 4960 kPa | 0.1724 mPa·s
273.21 K, 5010 kPa | 0.172 mPa·s
273.21 K, 5030 kPa | 0.1723 mPa·s
273.21 K, 7780 kPa | 0.1804 mPa·s
273.21 K, 7800 kPa | 0.1805 mPa·s
273.21 K, 7810 kPa | 0.1806 mPa·s
273.21 K, 7900 kPa | 0.1803 mPa·s
273.21 K, 7960 kPa | 0.1805 mPa·s
273.21 K, 9530 kPa | 0.1854 mPa·s
273.21 K, 9540 kPa | 0.1852 mPa·s
273.21 K, 9580 kPa | 0.1856 mPa·s
273.21 K, 9610 kPa | 0.1851 mPa·s
273.21 K, 9770 kPa | 0.185 mPa·s
273.21 K, 9880 kPa | 0.1853 mPa·s
283.22 K, 1240 kPa | 0.1416 mPa·s
283.22 K, 1260 kPa | 0.1418 mPa·s
283.22 K, 1470 kPa | 0.1416 mPa·s
283.22 K, 1510 kPa | 0.1424 mPa·s
283.22 K, 1530 kPa | 0.1424 mPa·s
283.22 K, 1570 kPa | 0.1429 mPa·s
283.22 K, 1900 kPa | 0.1433 mPa·s
283.22 K, 1930 kPa | 0.1433 mPa·s
283.22 K, 1950 kPa | 0.1432 mPa·s
283.22 K, 1970 kPa | 0.144 mPa·s
283.22 K, 2000 kPa | 0.1435 mPa·s
283.22 K, 2050 kPa | 0.1442 mPa·s
283.22 K, 3700 kPa | 0.1495 mPa·s
283.22 K, 3720 kPa | 0.1496 mPa·s
283.22 K, 3850 kPa | 0.1497 mPa·s
283.22 K, 5130 kPa | 0.1537 mPa·s
283.22 K, 5220 kPa | 0.1543 mPa·s
283.22 K, 5260 kPa | 0.1536 mPa·s and 0.154 mPa·s
283.22 K, 7400 kPa | 0.1615 mPa·s
283.22 K, 7500 kPa | 0.161 mPa·s
283.22 K, 7540 kPa | 0.1607 mPa·s
283.22 K, 9720 kPa | 0.1679 mPa·s
283.22 K, 9780 kPa | 0.1678 mPa·s
283.22 K, 9940 kPa | 0.168 mPa·s
283.22 K, 10050 kPa | 0.1678 mPa·s
293.17 K, 1370 kPa | 0.1253 mPa·s
293.17 K, 1390 kPa | 0.1255 mPa·s
293.17 K, 1400 kPa | 0.1252 mPa·s
293.17 K, 1420 kPa | 0.1256 mPa·s
293.17 K, 1430 kPa | 0.1258 mPa·s and 0.1256 mPa·s
293.17 K, 1440 kPa | 0.1258 mPa·s
293.17 K, 1850 kPa | 0.1268 mPa·s
293.17 K, 1860 kPa | 0.1266 mPa·s
293.17 K, 1890 kPa | 0.1271 mPa·s
293.17 K, 1920 kPa | 0.1267 mPa·s
293.17 K, 1940 kPa | 0.127 mPa·s
293.17 K, 3820 kPa | 0.1333 mPa·s
293.17 K, 3830 kPa | 0.1336 mPa·s
293.17 K, 3850 kPa | 0.1337 mPa·s
293.17 K, 3860 kPa | 0.1335 mPa·s
293.17 K, 3870 kPa | 0.1333 mPa·s
293.17 K, 3890 kPa | 0.1335 mPa·s and 0.1336 mPa·s
293.17 K, 4900 kPa | 0.1378 mPa·s
293.17 K, 4920 kPa | 0.1377 mPa·s
293.17 K, 4960 kPa | 0.138 mPa·s
293.17 K, 4970 kPa | 0.138 mPa·s
293.17 K, 5010 kPa | 0.1381 mPa·s
293.17 K, 7450 kPa | 0.1448 mPa·s
293.17 K, 7490 kPa | 0.1446 mPa·s
293.17 K, 7520 kPa | 0.145 mPa·s
293.17 K, 7550 kPa | 0.1449 mPa·s
293.17 K, 7560 kPa | 0.1449 mPa·s
293.17 K, 7590 kPa | 0.1451 mPa·s
293.17 K, 7620 kPa | 0.1453 mPa·s
293.17 K, 9740 kPa | 0.1507 mPa·s
293.17 K, 9770 kPa | 0.1506 mPa·s
293.17 K, 9820 kPa | 0.1507 mPa·s
293.17 K, 9880 kPa | 0.151 mPa·s
293.17 K, 9970 kPa | 0.1511 mPa·s
293.17 K, 10070 kPa | 0.1517 mPa·s
